Measurements: patent US20240148821A1, “PHARMACEUTICAL USE OF CYCLIC PEPTIDE COMPOUND” (CHUGAI SEIYAKU KABUSHIKI KAISHA, priority 2021, published 2024)
Numbered stars: 1 amine (or outer) side, 2 acyl side, 3 side chain; on linkers, the order of the positions; unused ones are H or OH. Bridge positions count the residues as written; N and C are the ends. Square brackets hold non-standard residues; d marks the D form. Peptide text beside a SMILES is read from it. * marks the point of attachment. hPhe(3-Cl-4-CF3) = N[C@@H](CCc1ccc(C(F)(F)F)c(Cl)c1)C(=O)O; NMePhe(4-CF3) = CN[C@@H](Cc1ccc(C(F)(F)F)cc1)C(=O)O; NPrAsp = CCCN([C@@H](CC(=O)[*:3])C(=O)[*:2])[*:1]; NEtPhe(4-Me) = CCN[C@@H](Cc1ccc(C)cc1)C(=O)O; NMedβ3hAla = C[C@H](CC(=O)[*:2])N(C)[*:1]; NMePhe(2-F) = CN[C@@H](Cc1ccccc1F)C(=O)O; NMeGly(cPent) = CN[C@H](C(=O)O)C1CCCC1; NMe3Pal = CN[C@@H](Cc1cccnc1)C(=O)O; NMeGly(cBu) = CN[C@H](C(=O)O)C1CCC1; NMeCha = CN[C@@H](CC1CCCCC1)C(=O)O; NMeAhp(2) = CCCCC[C@H](NC)C(=O)O; NMeI = CC[C@H](C)[C@H](NC)C(=O)O; NMeD = CN[C@@H](CC(=O)O)C(=O)O; NMeL = CN[C@@H](CC(C)C)C(=O)O; NMeV = CN[C@H](C(=O)O)C(C)C; d(β3hA) = C[C@@H](N)CC(=O)O; Azetidin(1-yl) = C1CN(*)C1; NMeS = CN[C@@H](CO)C(=O)O; NMeA = CN[C@@H](C)C(=O)O; Piperidide = C1CCN(*)CC1; Pyrrolidide = C1CCN(*)C1; Ac5c = NC1(C(=O)O)CCCC1; Aze = O=C(O)[C@@H]1CCN1; Sar = CNCC(=O)O; Propyl = CCC*

Assays:
[1] = tested on: Human pancreatic cancer cell line AsPC-1 (G12D mutation Kras); experiment: AsPC-1 cell growth inhibition (AsPC-1 CGI); type: cell-based; settings: read-out: AsPC-1 cell growth inhibition, 50% growth inhibitory concentration (IC50 value); 96 hours, CellTiter-Glo, values classified in ranges
Protocol: Test compounds were serially dilated with dimethyl sulfoxide, and 200 nL was then dispensed to a U-bottom 96-well plate using Labcyte Echo. […] The cell suspension was dispensed to a. plate containing a test compound at 100 μL per well and incubated at 37° C. in a 5% carbon dioxide gas incubator. 96 hours later, 80 μL of CellTiter-Glo (Promega) was added to each well and fluorescence was measured.

[2] = target: protein-protein interaction between Kras and SOS1 (biotin-tagged human Kras loaded with GDP, His-tagged human SOS1) (Homo sapiens (Human), UniProt P01116, G12D); experiment: Protein-protein interaction inhibition between Kras and SOS1 (KrasG12D-SOS PPI) using AlphaScreen; type: biochemical; settings: AlphaScreen; biotin-tagged human Kras loaded with GDP, His-tagged human SOS1; read-out: KRAS G12D-SOS PPI IC50;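 also: kras produced in E. coli, Ni-coupled donor beads and streptavidin acceptor beads, excitation 680 nm with emission detected at 520–620 nm via singlet oxygen transfer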

Compound | IC50 [1] [nM] | IC50 [2] [nM]
CC[C@H](C)[C@@H]1NC(=O)[C@H](CC(C)C)N(C)C(=O)C[C@@H](C(=O)N2CCCCC2)N(C)C(=O)[C@H](C(C)C)N(C)C(=O)C2(CCCC2)NC(=O)[C@@H]2CCCN2C(=O)[C@H](CCc2ccc(C(F)(F)F)c(Cl)c2)NC(=O)CN(C)C(=O)[C@H](COC)N(C)C(=O)[C@@H]2CCN2C(=O)[C@H](C)N(C)C1=O [Compound 487] ([NMeL]I[NMeA][Aze][NMeS](Me)[Sar][hPhe(3-Cl-4-CF3)]P[Ac5c][NMeV][NMeD]-Piperidide; lactam N-11) | > 500 | 5.9
CC[C@H](C)[C@@H]1NC(=O)[C@H](C)N(C)C(=O)C[C@@H](C)NC(=O)[C@H](C2CCCC2)N(C)C(=O)C2(CCCC2)NC(=O)[C@@H]2CCCN2C(=O)[C@H](CCc2ccc(C(F)(F)F)c(Cl)c2)NC(=O)CN(C)C(=O)[C@H](Cc2cccnc2)N(C)C(=O)[C@@H]2CCCN2C(=O)CN(C)C1=O [Compound 489] (cyclo([Ac5c][NMeGly(cPent)][d(β3hA)][NMeA]I[Sar]P[NMe3Pal][Sar][hPhe(3-Cl-4-CF3)]P)) | > 500 | 8.1
CC[C@H](C)[C@@H]1NC(=O)[C@H](C)N(C)C(=O)C[C@@H](C(=O)N2CCCCC2)N(C)C(=O)[C@H](C(C)C)N(C)C(=O)C2(CCCC2)NC(=O)[C@H](Cc2ccccc2F)N(C)C(=O)[C@H](CCc2ccc(C(F)(F)F)c(Cl)c2)NC(=O)CN(C)C(=O)[C@H](CC2CCCCC2)N(C)C(=O)CN(C)C(=O)CN(C)C1=O [Compound 492] ([NMeA]I[Sar][Sar][NMeCha][Sar][hPhe(3-Cl-4-CF3)][NMePhe(2-F)][Ac5c][NMeV][NMeD]-Piperidide; lactam N-11) | > 500 | 12
CC[C@H](C)[C@@H]1NC(=O)[C@H](CC(C)C)N(C)C(=O)C[C@@H](C(=O)N2CCC2)N(C)C(=O)[C@H](C2CCCC2)N(C)C(=O)C2(CCCC2)NC(=O)[C@@H]2CCCN2C(=O)[C@H](CCc2ccc(C(F)(F)F)c(Cl)c2)NC(=O)CN(C)C(=O)[C@H](Cc2ccc(C)cc2)N(CC)C(=O)[C@@H]2CCN2C(=O)[C@H](C)N(C)C1=O [Compound 506] ([NMeL]I[NMeA][Aze][NEtPhe(4-Me)][Sar][hPhe(3-Cl-4-CF3)]P[Ac5c][NMeGly(cPent)][NMeD]-{Azetidin(1-yl)}; lactam N-11) | ≤ 20 | 0.68
CCCCC[C@H]1C(=O)N[C@@H]([C@@H](C)CC)C(=O)N(C)[C@@H](C)C(=O)N2CC[C@H]2C(=O)N(C)[C@@H](Cc2ccc(C(F)(F)F)cc2)C(=O)N(C)CC(=O)N[C@@H](CCc2ccc(C(F)(F)F)c(Cl)c2)C(=O)N2CCC[C@H]2C(=O)NC2(CCCC2)C(=O)N(C)[C@@H]([C@@H](C)CC)C(=O)N(C)[C@H](C(=O)N2CCCC2)CC(=O)N1C [Compound 509] ([NMeAhp(2)]I[NMeA][Aze][NMePhe(4-CF3)][Sar][hPhe(3-Cl-4-CF3)]P[Ac5c][NMeI][NMeD]-Pyrrolidide; lactam N-11) | ≤ 20 | 1.3
CC[C@H](C)[C@@H]1NC(=O)[C@H](C)N(C)C(=O)C[C@@H](C(=O)N2CCCCC2)N(C)C(=O)[C@H](C(C)C)N(C)C(=O)C2(CCCC2)NC(=O)[C@H](Cc2cccnc2)N(C)C(=O)[C@H](CCc2ccc(C(F)(F)F)c(Cl)c2)NC(=O)CN(C)C(=O)[C@H](CC2CCCCC2)N(C)C(=O)CN(C)C(=O)CN(C)C1=O [Compound 519] ([NMeA]I[Sar][Sar][NMeCha][Sar][hPhe(3-Cl-4-CF3)][NMe3Pal][Ac5c][NMeV][NMeD]-Piperidide; lactam N-11) | > 500 | 2
CCCN1C(=O)[C@H](C2CCCC2)N(C)C(=O)C2(CCCC2)NC(=O)[C@@H]2CCCN2C(=O)[C@H](CCc2ccc(C(F)(F)F)c(Cl)c2)NC(=O)CN(C)C(=O)[C@H](C2CCC2)N(C)C(=O)[C@@H]2CCN2C(=O)[C@H](C)N(C)C(=O)[C@H]([C@@H](C)CC)NC(=O)[C@H](CC(C)C)N(C)C(=O)C[C@H]1C(=O)N1CCCCC1 [Compound 524] ([NMeL]I[NMeA][Aze][NMeGly(cBu)][Sar][hPhe(3-Cl-4-CF3)]P[Ac5c][NMeGly(cPent)][NPrAsp]-Piperidide; lactam N-11) | > 500 | 82
CCCOC[C@H]1C(=O)N(C)CC(=O)N[C@@H](CCc2ccc(C(F)(F)F)c(Cl)c2)C(=O)N2CCC[C@H]2C(=O)NC2(CCCC2)C(=O)N(C)[C@@H]([C@@H](C)CC)C(=O)N(C)[C@H](C)CC(=O)N(C)[C@@H](CC(C)C)C(=O)N[C@@H]([C@@H](C)CC)C(=O)N(C)[C@@H](C)C(=O)N2CC[C@H]2C(=O)N1C [Compound 529] (cyclo([Ac5c][NMeI][NMedβ3hAla][NMeL]I[NMeA][Aze][NMeS](Propyl)[Sar][hPhe(3-Cl-4-CF3)]P)) | ≤ 20 | 8.2
